Here are results for four compounds from paper PMC12621189, “Optimization of Selective and CNS Penetrant Alkyne-Based TREK Inhibitors: The Discovery and Characterization of ONO-9517601 (VU6022856) and ONO-7927846 (VU6024391)” (Journal of Medicinal Chemistry, 2025).

What is called IC50 is the point on the concentration scale where inhibition reaches its midpoint.

One data set addresses T1, mouse TREK-1 (mTREK-1) (Mus musculus, UniProt P97438).
T1 construct: expressed in transfected cells; host or cells: CHO-K1 (transient)
T1 sequence (P97438 1-426): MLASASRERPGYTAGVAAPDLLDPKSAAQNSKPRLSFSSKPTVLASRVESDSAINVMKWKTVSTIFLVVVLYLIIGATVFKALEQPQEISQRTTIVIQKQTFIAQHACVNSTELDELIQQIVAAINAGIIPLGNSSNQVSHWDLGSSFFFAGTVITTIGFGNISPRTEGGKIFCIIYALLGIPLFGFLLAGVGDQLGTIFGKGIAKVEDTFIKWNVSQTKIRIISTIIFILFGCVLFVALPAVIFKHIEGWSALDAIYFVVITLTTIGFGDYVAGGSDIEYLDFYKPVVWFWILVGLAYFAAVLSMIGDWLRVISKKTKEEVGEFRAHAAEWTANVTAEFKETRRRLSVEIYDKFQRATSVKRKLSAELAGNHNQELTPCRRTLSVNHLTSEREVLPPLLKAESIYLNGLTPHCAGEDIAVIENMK
In words: mTREK-1 manual patch clamp assay. It is filed as cell-based. To be noted: mouse TREK-1, manual patch clamp; read-out: TREK-1 IC50 (mouse, MPC). The protocol: hTREK-1 and mTREK-1 patch clamp assay
CHO-K1 cells stably expressing hTREK-1 or CHO-K1 cells transiently expressing mouse TREK-1 (mTREK-1) were plated on glass coverslips, and voltage clamped in the whole-cell configuration of the patch clamp technique. Cells were voltage clamped at a holding potential of - 80 mV and the stepped to 0 mV for 500 msec. The voltage was subsequently ramped from -120mV to +80 mV over a 500 msec duration. This step-ramp protocol was repeated every 10 sec. The bathing solution contained the following: 135 mM NaCl, 5 mM KCl, 2 mM CaCl2, 1 mM MgCl2, 5 mM D-Glucose, 10 mM HEPES, 10 mM sucrose (adjusted to pH 7.4 with NaOH, 300 mosmol/kg H2O). The pipette solution contained the following: 135 mM KCl, 2 mM MgCl2, 1 mM EGTA, 10 mM HEPES, 2 mM Na2ATP (adjusted to pH 7.35 with KOH, 285 mosmol/kg H2O). Test […]
compounds were dissolved into the bathing solution. The effects of test compound on the currents were calculated at 0 mV using the following equations:
% inhibition = (1-post current/pre current) x 100
% inhibition vs compound concentrations were plotted in GraphPad Prism and calculated IC50. […]
(In general: In patch-clamp work, channel activity is measured electrically.)

Data set [1] can be described thus: Liver microsome intrinsic clearance, human. The class given is in vitro ADME. To be noted: for CLint scaled at 1 µM: pH 7.4, human liver microsomes, predicted intrinsic clearance, read-out: LMS CLINT human; for Predicted CLhep human: from microsomal CLint. In outline: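 Incubation in 100 mM potassium phosphate pH 7.4 with 3 mM MgCl2 at 37 °C, started with 1 mM NADPH after 5 min preincubation; sampled 0–45 min, quenched in acetonitrile, LC/MS/MS. Half-life from ln % remaining vs time; CLint scaled with 20 (human) or 45 (rat) factors, CLhep using Qh 21 (human) or 70 (rat) mL/min/kg.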

SMILES strings stand for the structures.

In the case of `Cc1cc(C#Cc2ccccc2)cnc1NC(=O)c1cc(OC[C@@H]2COCCO2)ccc1Cl` [Compound 7, (S)-5-((1,4-Dioxan-2-yl)methoxy)-2-chloro-N-(3-methyl-5-(phenylethynyl)pyridin-2-yl)benzamide], the IC50 on mouse TREK-1 (mTREK-1) was determined as 170 nM. Also, the CLint scaled at 1 µM in data set [1] is 57 mL/min/kg.

On to `CC(=O)N1CCC(n2ncc(Cl)c2C(=O)Nc2ncc(C#Cc3ccccc3)cc2C)CC1` [Compound 10, 1-(1-Acetylpiperidin-4-yl)-4-chloro-N-(3-methyl-5-(phenylethynyl)pyridin-2-yl)-1H-pyrazole-5-carboxamide], for which the IC50 on mouse TREK-1 (mTREK-1) came out at 67 nM. Moreover, in data set [1], the “Predicted CLhep human” value is 4.9 mL/min/kg and the CLint scaled at 1 µM was 6 mL/min/kg.

On to `CC(=O)N1CC[C@@H](n2ncc(Cl)c2C(=O)Nc2ncc(C#Cc3ccc(F)cc3)cc2C)[C@H](F)C1` [Compound 11, 1-((3R,4R)-1-Acetyl-3-fluoropiperidin-4-yl)-4-chloro-N-(5-((4-fluorophenyl)ethynyl)-3-methylpyridin-2-yl)-1H-pyrazole-5-carboxamide], for which the IC50 on mouse TREK-1 (mTREK-1) turned out to be 760 nM. For the same compound, in data set [1], the “Predicted CLhep human” value is 7.0 mL/min/kg and the CLint scaled at 1 µM was 10 mL/min/kg.

On to `Cc1cc(C#Cc2ccccc2)cnc1NC(=O)c1c(Cl)cnn1[C@H]1CCOC1` [Compound 15a, (S)-4-Chloro-N-(3-methyl-5-(phenylethynyl)pyridin-2-yl)-1-(tetrahydrofuran-3-yl)-1H-pyrazole-5-carboxamide], for which the CLint scaled at 1 µM in data set [1] is 4 mL/min/kg.
